Laboratory results from US8871753B2, “Macrocyclic compounds and their use as kinase inhibitors” (Incyte Corporation, priority 2008, dated 2014).
pIC50: −log10 of the molar value. Where a name gives a salt, the structure may show the parent alone. Read-outs that look alike come from different tables or passages of the source.

Key:
Format in all cases: biochemical
[1] = target: T1, human JAK1 (a.a. 837-1142) (Homo sapiens, UniProt P23458); assay: In vitro JAK kinase assay (HTRF, phosphorylation of a biotinylated peptide), JAK1; details: read-out: JAK1 IC50
T1 construct: human JAK1 (a.a. 837-1142); His tag (N); made in house; host or cells: insect cells (baculovirus)
Method in brief: (§1)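 Kinase activity was measured as phosphorylation of a biotinylated peptide, with ATP at 90 μM for JAK1, 30 μM for JAK2 and 3 μM for JAK3. Reactions ran 1 hr at room temperature, were stopped with EDTA plus SA-APC and Eu-Py20, and were read by HTRF after 40 minutes of antibody binding.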

[2] = target: T2, human JAK2 (a.a. 828-1132) (Homo sapiens, UniProt O60674); assay: In vitro JAK kinase assay (HTRF, phosphorylation of a biotinylated peptide), JAK2
T2 construct: JAK2 (a.a. 828-1132); His tag (N); made in house; host or cells: insect cells (baculovirus)
Method in brief: as §1

[3] = target: T3, human JAK3 (a.a. 781-1124) (Homo sapiens, UniProt P52333); assay: In vitro JAK kinase assay (HTRF, phosphorylation of a biotinylated peptide), JAK3
T3 construct: JAK3 (a.a. 781-1124); His tag (N); made in house; host or cells: insect cells (baculovirus)
Method in brief: as §1

TYK2 = TYK2 (Homo sapiens, UniProt P29597); assay: TYK2 kinase inhibition (Table A1)
[4] = target: T4, Recombinant Human Anaplastic Lymphoma Kinase (Homo sapiens, UniProt Q9UM73); assay: ALK HTRF kinase assay
T4 construct: purchased Invitrogen, Carlsbad, Calif
Method in brief: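 Compounds were incubated with recombinant human ALK and a biotin-tagged peptide substrate. Product was captured with streptavidin-APC and probed with a europium anti-phosphotyrosine antibody, and plates were read for time-resolved fluorescence. Dose-response data were fitted to derive IC50.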

[5] = Table B1, cells without percent sign
[6] = method AA1 (90 μM ATP) or AA2 (1000 μM ATP), not stated per value
[7] = method AA1 (30 μM ATP) or AA2 (1000 μM ATP), not stated per value
[8] = method AA1 (3 μM ATP) or AA2 (1000 μM ATP), not stated per value
[9] = compound at 500 nM or 1 mM, 90 μM ATP
[10] = compound at a concentration of 500 nM or 1 mM (not specified), cells shown as percentage
[11] = percentage inhibition of the example compound at a concentration of 500 nM or 1 mM (not specified which)

Sequence of TYK2 (P29597 whole entry): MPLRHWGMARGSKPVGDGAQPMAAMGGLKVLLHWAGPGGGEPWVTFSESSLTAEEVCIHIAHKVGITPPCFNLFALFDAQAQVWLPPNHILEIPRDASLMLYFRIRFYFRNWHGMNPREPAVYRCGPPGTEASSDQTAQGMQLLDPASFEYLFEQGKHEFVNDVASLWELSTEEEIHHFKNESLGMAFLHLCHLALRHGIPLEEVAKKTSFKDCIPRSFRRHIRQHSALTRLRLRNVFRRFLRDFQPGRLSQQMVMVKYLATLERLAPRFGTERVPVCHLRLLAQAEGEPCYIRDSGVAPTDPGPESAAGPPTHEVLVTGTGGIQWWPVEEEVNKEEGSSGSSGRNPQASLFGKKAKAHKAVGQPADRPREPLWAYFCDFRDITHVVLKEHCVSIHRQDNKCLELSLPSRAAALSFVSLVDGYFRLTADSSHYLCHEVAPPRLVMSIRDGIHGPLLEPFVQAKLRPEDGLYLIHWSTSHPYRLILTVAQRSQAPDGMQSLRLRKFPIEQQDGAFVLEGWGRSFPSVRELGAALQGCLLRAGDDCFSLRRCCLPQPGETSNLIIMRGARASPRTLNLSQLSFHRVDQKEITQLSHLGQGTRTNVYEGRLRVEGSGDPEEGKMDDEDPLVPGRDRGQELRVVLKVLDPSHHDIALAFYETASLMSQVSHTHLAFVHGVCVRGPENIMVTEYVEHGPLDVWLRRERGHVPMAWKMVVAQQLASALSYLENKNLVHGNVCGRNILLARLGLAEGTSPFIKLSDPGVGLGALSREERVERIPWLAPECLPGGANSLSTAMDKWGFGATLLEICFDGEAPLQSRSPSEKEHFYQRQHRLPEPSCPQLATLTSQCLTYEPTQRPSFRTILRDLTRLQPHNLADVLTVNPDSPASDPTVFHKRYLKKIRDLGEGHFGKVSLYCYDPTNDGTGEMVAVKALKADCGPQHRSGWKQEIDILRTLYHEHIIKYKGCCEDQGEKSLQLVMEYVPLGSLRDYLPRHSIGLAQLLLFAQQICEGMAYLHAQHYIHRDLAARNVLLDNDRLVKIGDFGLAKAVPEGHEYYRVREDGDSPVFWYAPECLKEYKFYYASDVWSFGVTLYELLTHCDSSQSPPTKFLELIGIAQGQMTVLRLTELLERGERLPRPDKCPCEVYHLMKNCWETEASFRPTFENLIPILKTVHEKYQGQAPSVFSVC
T3 sequence (P52333 781-1124): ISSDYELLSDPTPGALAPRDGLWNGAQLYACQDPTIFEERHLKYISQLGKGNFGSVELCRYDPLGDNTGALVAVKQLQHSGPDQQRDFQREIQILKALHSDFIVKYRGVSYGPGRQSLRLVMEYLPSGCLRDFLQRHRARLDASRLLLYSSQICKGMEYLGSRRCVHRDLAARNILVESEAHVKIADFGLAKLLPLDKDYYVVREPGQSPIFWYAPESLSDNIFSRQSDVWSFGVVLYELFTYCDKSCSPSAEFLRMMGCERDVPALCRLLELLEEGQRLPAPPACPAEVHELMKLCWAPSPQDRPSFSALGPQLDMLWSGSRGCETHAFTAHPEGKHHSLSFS
T2 sequence (O60674 828-1132): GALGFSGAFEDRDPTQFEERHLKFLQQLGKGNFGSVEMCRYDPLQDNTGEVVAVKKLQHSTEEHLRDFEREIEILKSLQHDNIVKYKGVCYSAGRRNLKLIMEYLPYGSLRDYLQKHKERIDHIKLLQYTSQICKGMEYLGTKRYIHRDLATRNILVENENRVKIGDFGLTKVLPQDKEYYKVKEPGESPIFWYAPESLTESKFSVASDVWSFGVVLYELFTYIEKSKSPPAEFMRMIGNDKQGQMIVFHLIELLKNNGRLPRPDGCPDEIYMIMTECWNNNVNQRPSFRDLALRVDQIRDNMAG
T1 sequence (P23458 849-1154): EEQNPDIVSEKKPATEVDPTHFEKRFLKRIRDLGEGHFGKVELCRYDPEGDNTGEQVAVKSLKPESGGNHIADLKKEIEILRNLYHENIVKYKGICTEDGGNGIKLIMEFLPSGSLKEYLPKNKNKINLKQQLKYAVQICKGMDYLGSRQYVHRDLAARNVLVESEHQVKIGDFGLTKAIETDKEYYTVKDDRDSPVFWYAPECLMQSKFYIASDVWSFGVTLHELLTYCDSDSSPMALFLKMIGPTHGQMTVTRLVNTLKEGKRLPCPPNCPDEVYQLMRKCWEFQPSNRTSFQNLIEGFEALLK
T4 sequence (Q9UM73 19-1620): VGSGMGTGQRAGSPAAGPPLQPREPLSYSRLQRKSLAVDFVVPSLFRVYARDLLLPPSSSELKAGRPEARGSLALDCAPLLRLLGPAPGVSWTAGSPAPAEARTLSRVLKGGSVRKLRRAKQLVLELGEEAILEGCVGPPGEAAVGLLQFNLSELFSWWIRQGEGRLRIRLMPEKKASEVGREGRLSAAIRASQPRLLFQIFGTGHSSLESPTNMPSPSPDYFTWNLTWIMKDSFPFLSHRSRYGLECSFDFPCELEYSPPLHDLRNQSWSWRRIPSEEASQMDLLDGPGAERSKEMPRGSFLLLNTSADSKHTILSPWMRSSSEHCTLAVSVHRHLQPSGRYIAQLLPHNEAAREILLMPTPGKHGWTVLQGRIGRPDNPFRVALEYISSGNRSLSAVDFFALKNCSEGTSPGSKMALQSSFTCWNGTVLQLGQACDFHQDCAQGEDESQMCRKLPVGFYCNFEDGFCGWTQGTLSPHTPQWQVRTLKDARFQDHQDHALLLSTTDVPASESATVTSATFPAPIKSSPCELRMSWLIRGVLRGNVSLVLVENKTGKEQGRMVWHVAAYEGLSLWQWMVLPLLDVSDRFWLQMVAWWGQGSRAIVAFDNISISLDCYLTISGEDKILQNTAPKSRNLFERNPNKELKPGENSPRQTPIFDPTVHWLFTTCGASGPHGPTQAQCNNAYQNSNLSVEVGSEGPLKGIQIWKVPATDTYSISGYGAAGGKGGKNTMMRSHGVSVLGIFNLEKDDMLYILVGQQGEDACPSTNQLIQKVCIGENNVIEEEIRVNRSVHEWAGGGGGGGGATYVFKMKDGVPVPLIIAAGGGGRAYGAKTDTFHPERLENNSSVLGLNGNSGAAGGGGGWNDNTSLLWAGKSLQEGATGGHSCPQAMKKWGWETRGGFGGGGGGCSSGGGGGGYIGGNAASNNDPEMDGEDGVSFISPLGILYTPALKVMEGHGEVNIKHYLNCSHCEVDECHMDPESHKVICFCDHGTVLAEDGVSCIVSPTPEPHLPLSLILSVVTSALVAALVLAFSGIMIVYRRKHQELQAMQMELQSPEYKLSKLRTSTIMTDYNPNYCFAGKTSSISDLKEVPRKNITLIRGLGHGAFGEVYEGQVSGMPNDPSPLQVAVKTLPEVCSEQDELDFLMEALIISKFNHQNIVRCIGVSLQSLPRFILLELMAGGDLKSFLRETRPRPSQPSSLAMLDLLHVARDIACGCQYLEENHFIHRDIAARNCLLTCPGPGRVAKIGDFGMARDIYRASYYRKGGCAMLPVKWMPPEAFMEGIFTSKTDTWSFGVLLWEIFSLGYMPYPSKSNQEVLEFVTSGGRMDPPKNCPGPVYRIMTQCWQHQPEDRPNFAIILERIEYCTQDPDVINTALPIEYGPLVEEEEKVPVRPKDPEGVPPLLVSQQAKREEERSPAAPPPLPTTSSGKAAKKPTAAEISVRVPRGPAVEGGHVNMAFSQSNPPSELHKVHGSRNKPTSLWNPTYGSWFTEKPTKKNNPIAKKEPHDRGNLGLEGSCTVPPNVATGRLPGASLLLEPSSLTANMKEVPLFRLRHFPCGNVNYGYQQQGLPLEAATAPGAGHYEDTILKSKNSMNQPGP

| pIC50 ([1]; Table B1) | pIC50 ([2]; Table B1) | pIC50 ([3]; Table B1) | pIC50 (TYK2; Table B1) | pIC50 [4, 5] | Structure (SMILES) | further results |
| --- | --- | --- | --- | --- | --- | --- |
| 8.51 | 8.27 | 7.34 | 7.41 | – | CC(=O)N1CC[C@@H](NC(=O)Nc2ccc3cc2CCc2cccc(c2)Nc2ncc(Cl)c(n2)N3)C1 [Example B177, N-[(3R)-1-Acetylpyrrolidin-3-yl]-N′-[6-chloro-2,4,8,22-tetraazatetracyclo[14.3.1.1(3,7).1(9,13)]docosa-1(20),3(22),4,6,9(21),10,12,16,18-nonaen-12-yl]urea trifluoroacetate] | ALK % of inhibition at a concentration of 500 nM or 1 mM [4, 10]: 20% |
| 8.77 | 9.20 | 8.19 | 8.64 | 6.85 | O=C(Nc1ccc2cc1CCc1cccc(c1)Nc1ncc(Cl)c(n1)N2)c1ccccc1Cl [Example B41, 2-Chloro-N-[6-chloro-2,4,8,22-tetraazatetracyclo[14.3.1.1(3,7).1(9,13)]docosa-1(20),3(22),4,6,9(21),10,12,16,18-nonaen-12-yl]benzamide hydrochloride] | – |
| 8.19 | 8.40 | 7.14 | 7.70 | – | COCC(C)NC(=O)Nc1ccc2cc1CCc1cccc(c1)Nc1ncc(Cl)c(n1)N2 (stereo not shown) [Example B247, N-[6-Chloro-2,4,8,22-tetraazatetracyclo[14.3.1.1(3,7).1(9,13)]docosa-1(20),3(22),4,6,9(21),10,12,16,18-nonaen-12-yl]-N′-(2-methoxy-1-methylethyl)ureatrifluoroacetate] | ALK % of inhibition at a concentration of 500 nM or 1 mM [4, 10]: 7.5% |
| 9.29 | 9.70 | 8.89 | 9.05 | 6.82 | CS(=O)(=O)Nc1ccc2cc1CCc1cccc(c1)Nc1ncc(Cl)c(n1)N2 [Example B140, N-[6-Chloro-2,4,8,22-tetraazatetracyclo[14.3.1.1(3,7).1(9,13)]docosa-1(20), 3(22),4,6,9(21),10,12,16,18-nonaen-12-yl]methanesulfonamide trifluoroacetate] | – |
| 7.24 | 6.52 | < 6.40 | 7.05 | – | COc1cccc(N2CCN(C(=O)Nc3ccc4cc3CCc3cncc(c3)Nc3ncc(Cl)c(n3)N4)CC2)c1 [Example B304, N-[6-Chloro-2,4,8,18,22-pentaazatetracyclo[14.3.1.1(3,7).1(9,13)]docosa-1(20),3(22),4,6,9(21),10,12,16,18-nonaen-12-yl]-4-(3-methoxyphenyl)piperazine-1-carboxamide tris(trifluoroacetate)] | ALK % of inhibition at a concentration of 500 nM or 1 mM [4, 11]: 67% |
| 7.35 | 7.11 | < 6.70 | < 6.70 | – | Cc1cc(C(=O)N2CCC(C(=O)N(C)Cc3ccc4cc3CCc3cncc(c3)Nc3ncc(Cl)c(n3)N4)CC2)no1 [Example B335, N-{[6-Chloro-2,4,8,18,22-pentaazatetracyclo[14.3.1.1(3,7).1(9,13)]docosa-1(20),3(22),4,6,9(21),10,12,16,18-nonaen-12-yl]methyl}-N-methyl-1-[(5-methylisoxazol-3-yl)carbonyl]piperidine-4-carboxamide bis(trifluoroacetate)] | ALK % of inhibition at a concentration of 500 nM or 1 mM [4, 11]: 18% |
| 6.44 | 7.33 | 6.97 | 6.64 | < 6.00 | CC(C)(C)C(=O)Nc1ccc2cc1CCc1cccc(c1)Nc1ncc(Cl)c(n1)N2 [Example B58, N-[6-Chloro-2,4,8,22-tetraazatetracyclo[14.3.1.1(3,7).1(9,13)]docosa-1(20), 3(22),4,6,9(21),10,12,16,18-nonaen-12-yl]-2,2-dimethylpropanamide trifluoroacetate] | – |
| 8.04 | 7.72 | 8.59 | 8.80 | – | O=C(Nc1nc[nH]n1)Nc1ccc2cc1CCc1cccc(c1)Nc1ncc(Cl)c(n1)N2 [Example B244, N-[6-Chloro-2,4,8,22-tetraazatetracyclo[14.3.1.1(3,7).1(9,13)]docosa-1(20),3(22),4,6,9(21),10,12,16,18-nonaen-12-yl]-N′-1H-1,2,4-triazol-3-ylurea trifluoroacetate] | ALK % of inhibition at a concentration of 500 nM or 1 mM [4, 10]: 63% |

The next lines start with the compound.

| Structure (SMILES) | pIC50 ([1]; Table B1) | pIC50 ([2]; Table B1) | pIC50 ([3]; Table B1) | pIC50 (TYK2; Table B1) | pIC50 [4, 5] | further results |
| --- | --- | --- | --- | --- | --- | --- |
| O=C(Cc1ccccc1)Nc1ccc2cc1CCc1cccc(c1)Nc1ncc(Cl)c(n1)N2 [Example B32, N-[6-Chloro-2,4,8,22-tetraazatetracyclo[14.3.1.1(3,7).1(9,13)]docosa-1(20), 3(22),4,6,9(21),10,12,16,18-nonaen-12-yl]-2-phenylacetamide trifluoroacetate] | 8.55 | 8.80 | 8.26 | 8.57 | 6.03 | – |
| N#Cc1ccc(NC(=O)N2CCC(CC(=O)Nc3ccc4cc3CCc3cncc(c3)Nc3ncc(Cl)c(n3)N4)CC2)cc1 [Example A143, 4-(2-{[6-Chloro-2,4,8,18,22-pentaazatetracyclo[14.3.1.1(3,7).1(9,13)]docosa-1(20),3(22),4,6,9(21),10,12,16,18-nonaen-12-yl]amino}-2-oxoethyl)-N-(4-cyanophenyl)piperidine-1-carboxamide bis(trifluoroacetate)] | – | – | – | – | – | pIC50 [1, 6]: 8.66; pIC50 [2, 7]: 8.74; pIC50 [3, 8]: < 7.00; pIC50 (TYK2): 8.92; ALK % of inhibition at a concentration of 500 nM or 1 mM [4, 9]: 63% |
| O=C(Nc1ccc2[nH]ccc2c1)c1cc2cc(c1)OCCSc1cccc(c1)Nc1nc(ncc1Cl)N2 [Example D56, 6-Chloro-N-1H-indol-5-yl-17-oxa-14-thia-2,4,8,24-tetraazatetracyclo[16.3.1.1(3,7).1(9,13)]tetracosa-1(22),3(24),4,6,9(23),10,12,18,20-nonaene-20-carboxamide trifluoroacetate] | – | – | – | – | – | pIC50 ([1]; Table D1): 8.00; pIC50 ([2]; Table D1): 8.32; pIC50 ([3]; Table D1): 7.38; pIC50 (TYK2; Table D1): 7.85; pIC50 ([4]; Table D1, 90 μM ATP): 5.71 |
| O=C(Nc1ccc2cc1CCc1cccc(c1)Nc1ncc(Cl)c(n1)N2)C1CCN(C(=S)Nc2ccccc2)CC1 [Example A43, 1-(Anilinocarbonothioyl)-N-[6-chloro-2,4,8,22-tetraazatetracyclo[14.3.1.1(3,7).1(9,13)]docosa-1(20),3(22),4,6,9(21),10,12,16,18-nonaen-12-yl]piperidine-4-carboxamide trifluoroacetate] | – | – | – | – | – | pIC50 [1, 6]: 9.00; pIC50 [2, 7]: 8.32; pIC50 [3, 8]: 7.44; pIC50 (TYK2): 7.32; ALK % of inhibition at a concentration of 500 nM or 1 mM [4, 9]: 32% |
| O=C(NCc1ccccc1)Nc1cc2cc(c1)OCCSc1cccc(c1)Nc1nc(ncc1Cl)N2 [Example D66, N-Benzyl-N′-[6-chloro-17-oxa-14-thia-2,4,8,24-tetraazatetracyclo[16.3.1.1(3,7).1(9,13)]tetracosa-1(22),3(24),4,6,9(23),10,12,18,20-nonaen-20-yl]urea trifluoroacetate] | – | – | – | – | – | pIC50 ([1]; Table D1): 8.14; pIC50 ([2]; Table D1): 8.52; pIC50 ([3]; Table D1): 8.02; pIC50 (TYK2; Table D1): 8.47; pIC50 ([4]; Table D1, 90 μM ATP): 6.11 |
| Cc1ccccc1C(=O)Nc1ccc2cc1CCc1cccc(c1)Nc1ncc(Cl)c(n1)N2 [Example B35, N-[6-Chloro-2,4,8,22-tetraazatetracyclo[14.3.1.1(3,7).1(9,13)]docosa-1(20), 3(22),4,6,9(21),10,12,16,18-nonaen-12-yl]-2-methylbenzamide trifluoroacetate] | 9.22 | 9.46 | 8.85 | 8.89 | 7.12 | – |
| COc1ccc(S(=O)(=O)N2CCC(CC(=O)Nc3ccc4cc3CCc3cncc(c3)Nc3ncc(Cl)c(n3)N4)CC2)cc1 [Example A197, N-[6-Chloro-2,4,8,18,22-pentaazatetracyclo[14.3.1.1(3,7).1(9,13)]docosa-1(20),3(22),4,6,9(21),10,12,16,18-nonaen-12-yl]-2-{1-[(4-methoxyphenyl)sulfonyl]piperidin-4-yl}acetamide bis(trifluoroacetate)] | – | – | – | – | – | pIC50 [1, 6]: 7.52; pIC50 [2, 7]: < 6.70; pIC50 [3, 8]: < 6.70; pIC50 (TYK2): < 6.70; ALK % of inhibition at a concentration of 500 nM or 1 mM [4, 9]: 39% |
| O=C(Nc1ccc(CCO)cc1)c1cc2cc(c1)Nc1nc(ncc1Cl)Nc1cccc(c1)CC2 [Example B10, 6-Chloro-N-[4-(2-hydroxyethyl)phenyl]-2,4,8,22-tetraazatetracyclo[14.3.1.1(3,7).1(9,13)]docosa-1(20),3(22),4,6,9(21),10,12,16,18-nonaene-11-carboxamide trifluoroacetate] | 7.17 | 7.92 | 7.29 | 6.76 | 5.71 | – |
| O=C(CC1CCN(c2cnccn2)CC1)Nc1ccc2cc1CCc1cncc(c1)Nc1ncc(Cl)c(n1)N2 [Example A171, N-[6-Chloro-2,4,8,18,22-pentaazatetracyclo[14.3.1.1(3,7).1(9,13)]docosa-1(20),3(22),4,6,9(21),10,12,16,18-nonaen-12-yl]-2-(1-pyrazin-2-ylpiperidin-4-yl)acetamide tris(trifluoroacetate)] | – | – | – | – | – | pIC50 [1, 6]: 7.92; pIC50 [2, 7]: 6.93; pIC50 [3, 8]: < 6.00; pIC50 (TYK2): 6.52; ALK % of inhibition at a concentration of 500 nM or 1 mM [4, 9]: 29% |
